Values joined by “and” are separate entries in the source; they are usually repeats but may differ in a detail not shown here. Equal values may be shown once. Toxic doses and inconclusive results are not listed.
System: L1210 leukemia ip in BDF1 mice, survival T/C
Test: NCI In Vivo Anticancer Drug Screen. Data for tumor model L1210 Leukemia (intraperitoneal) in B6D2F1 (BDF1) mice
Conditions: higher = longer survival
Outline: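 Read-out is survival time, reported as the treated-group measurement over the vehicle-control measurement.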

[1] = endpoint: mean survival time, dose: 100.0 mg/kg/injection, schedule: Q01DX009 (ip), vehicle: acetone
[2] = endpoint: mean survival time, dose: 200.0 mg/kg/injection, schedule: Q01DX009 (ip), vehicle: acetone
[3] = endpoint: mean survival time, dose: 400.0 mg/kg/injection, schedule: Q01DX009 (ip), vehicle: acetone

With CC(=O)OC1CCC(CC2CCCCC2)CC1 (stereo not given) the T/C (endpoint: mean survival time, dose: 50.0 mg/kg/injection, schedule: Q01DX009 (ip), vehicle: Klucel (hydroxypropylcellulose) (HPC)) was 94 % of control, the T/C (endpoint: mean survival time, dose: 100.0 mg/kg/injection, schedule: Q01DX009 (ip), vehicle: Klucel (hydroxypropylcellulose) (HPC)) was 100 % of control and the T/C (endpoint: mean survival time, dose: 200.0 mg/kg/injection, schedule: Q01DX009 (ip), vehicle: Klucel (hydroxypropylcellulose) (HPC)) was 100 % of control. For the same molecule, the T/C (endpoint: mean survival time, dose: 400.0 mg/kg/injection, schedule: Q01DX009 (ip), vehicle: Klucel (hydroxypropylcellulose) (HPC)) was 93 % of control.

In the case of COc1cc2c(c(OC)c1OC)-c1ccc(OC)c(=O)cc1[C@@H](NC(C)=O)CC2, the T/C (endpoint: mean survival time, dose: 0.01 mg/kg/injection, schedule: Q01DX010 (ip), vehicle: saline) is reported as 96 % of control and 97 % of control, the T/C (endpoint: mean survival time, dose: 0.02 mg/kg/injection, schedule: Q01DX010 (ip), vehicle: saline) is reported as 93 % of control and 103 % of control and the T/C (endpoint: mean survival time, dose: 0.04 mg/kg/injection, schedule: Q01DX010 (ip), vehicle: saline) is reported as 102 % of control and 103 % of control. The T/C (endpoint: mean survival time, dose: 0.06 mg/kg/injection, schedule: Q01DX015 (ip), vehicle: saline) was 98 % of control, the T/C (endpoint: mean survival time, dose: 0.08 mg/kg/injection, schedule: Q01DX010 (ip), vehicle: saline) was 102 % of control and 115 % of control and the T/C (endpoint: mean survival time, dose: 0.09 mg/kg/injection, schedule: Q01DX015 (ip), vehicle: saline) was 100 % of control. For the same molecule, the T/C (endpoint: mean survival time, dose: 0.09 mg/kg/injection, schedule: Q02DX008 (ip), vehicle: saline) was 97 % of control, the T/C (endpoint: mean survival time, dose: 0.1 mg/kg/injection, schedule: Q## X032 (ip), vehicle: saline) was 98 % of control and the T/C (endpoint: mean survival time, dose: 0.13 mg/kg/injection, schedule: Q01DX009 (ip), vehicle: saline) was 110 % of control. For the same molecule, the T/C (endpoint: mean survival time, dose: 0.13 mg/kg/injection, schedule: Q01DX015 (ip), vehicle: saline) was 104 % of control, the T/C (endpoint: mean survival time, dose: 0.13 mg/kg/injection, schedule: Q02DX008 (ip), vehicle: saline) was 97 % of control and the T/C (endpoint: mean survival time, dose: 0.16 mg/kg/injection, schedule: Q## X032 (ip), vehicle: saline) was 97 % of control. For the same molecule, the T/C (endpoint: mean survival time, dose: 0.2 mg/kg/injection, schedule: Q01DX015 (ip), vehicle: saline) was 113 % of control, the T/C (endpoint: mean survival time, dose: 0.2 mg/kg/injection, schedule: Q02DX008 (ip), vehicle: saline) was 103 % of control and the T/C (endpoint: mean survival time, dose: 0.24 mg/kg/injection, schedule: Q## X032 (ip), vehicle: saline) was 100 % of control. The T/C (endpoint: mean survival time, dose: 0.25 mg/kg/injection, schedule: Q01DX005 (oral), vehicle: saline) was 102 % of control, the T/C (endpoint: mean survival time, dose: 0.25 mg/kg/injection, schedule: Q01DX009 (ip), vehicle: saline) was 113 % of control and the T/C (endpoint: mean survival time, dose: 0.25 mg/kg/injection, schedule: Q04DX003 (ip), vehicle: saline) was 121 % of control. The T/C (endpoint: mean survival time, dose: 0.3 mg/kg/injection, schedule: Q01DX015 (ip), vehicle: saline) was 117 % of control, the T/C (endpoint: mean survival time, dose: 0.3 mg/kg/injection, schedule: Q02DX008 (ip), vehicle: saline) was 106 % of control and the T/C (endpoint: mean survival time, dose: 0.36 mg/kg/injection, schedule: Q## X032 (ip), vehicle: saline) was 102 % of control. The T/C (endpoint: mean survival time, dose: 0.45 mg/kg/injection, schedule: Q02DX008 (ip), vehicle: saline) was 120 % of control, the T/C (endpoint: mean survival time, dose: 0.5 mg/kg/injection, schedule: Q01DX001 (iv), vehicle: saline) was 93 % of control and the T/C (endpoint: mean survival time, dose: 0.5 mg/kg/injection, schedule: Q01DX005 (oral), vehicle: saline) was 101 % of control. The T/C (endpoint: mean survival time, dose: 0.5 mg/kg/injection, schedule: Q01DX009 (ip), vehicle: saline) was 108 % of control, the T/C (endpoint: mean survival time, dose: 0.5 mg/kg/injection, schedule: Q04DX003 (ip), vehicle: saline) was 116 % of control and the T/C (endpoint: mean survival time, dose: 0.5 mg/kg/injection, schedule: Q## X032 (ip), vehicle: saline) was 105 % of control. The T/C (endpoint: mean survival time, dose: 0.54 mg/kg/injection, schedule: Q04DX004 (ip), vehicle: saline) was 112 % of control, the T/C (endpoint: mean survival time, dose: 0.54 mg/kg/injection, schedule: Q## X032 (ip), vehicle: saline) was 105 % of control and the T/C (endpoint: mean survival time, dose: 0.6 mg/kg/injection, schedule: Q## X004 (ip), vehicle: saline) was 112 % of control. The T/C (endpoint: mean survival time, dose: 0.8 mg/kg/injection, schedule: Q04DX004 (ip), vehicle: saline) was 114 % of control, the T/C (endpoint: mean survival time, dose: 0.8 mg/kg/injection, schedule: Q## X032 (ip), vehicle: saline) was 114 % of control and the T/C (endpoint: mean survival time, dose: 0.9 mg/kg/injection, schedule: Q## X004 (ip), vehicle: saline) was 114 % of control. The T/C (endpoint: mean survival time, dose: 1.0 mg/kg/injection, schedule: Q01DX001 (iv), vehicle: saline) was 97 % of control, the T/C (endpoint: mean survival time, dose: 1.0 mg/kg/injection, schedule: Q01DX005 (oral), vehicle: saline) was 100 % of control and the T/C (endpoint: mean survival time, dose: 1.0 mg/kg/injection, schedule: Q01DX009 (ip), vehicle: saline) was 122 % of control. For the same molecule, the T/C (endpoint: mean survival time, dose: 1.0 mg/kg/injection, schedule: Q04DX003 (ip), vehicle: saline) was 104 % of control, the T/C (endpoint: mean survival time, dose: 1.2 mg/kg/injection, schedule: Q04DX004 (ip), vehicle: saline) was 116 % of control and the T/C (endpoint: mean survival time, dose: 1.25 mg/kg/injection, schedule: Q01DX001 (ip), vehicle: saline) was 101 % of control and 114 % of control and 123 % of control. For the same molecule, the T/C (endpoint: mean survival time, dose: 1.3 mg/kg/injection, schedule: Q## X004 (ip), vehicle: saline) was 121 % of control, the T/C (endpoint: mean survival time, dose: 1.6 mg/kg/injection, schedule: Q## X032 (ip), vehicle: saline) was 124 % of control and the T/C (endpoint: mean survival time, dose: 2.0 mg/kg/injection, schedule: Q01DX001 (iv), vehicle: saline) was 107 % of control. The T/C (endpoint: mean survival time, dose: 2.0 mg/kg/injection, schedule: Q01DX001 (oral), vehicle: saline) was 91 % of control, the T/C (endpoint: mean survival time, dose: 2.0 mg/kg/injection, schedule: Q01DX005 (oral), vehicle: saline) was 92 % of control and the T/C (endpoint: mean survival time, dose: 2.0 mg/kg/injection, schedule: Q## X004 (ip), vehicle: saline) was 156 % of control. The T/C (endpoint: mean survival time, dose: 2.5 mg/kg/injection, schedule: Q01DX001 (ip), vehicle: saline) was 118 % of control and 124 % of control, the T/C (endpoint: mean survival time, dose: 3.6 mg/kg/injection, schedule: Q## X032 (ip), vehicle: saline) was 102 % of control and the T/C (endpoint: mean survival time, dose: 4.0 mg/kg/injection, schedule: Q01DX001 (iv), vehicle: saline) was 97 % of control. The T/C (endpoint: mean survival time, dose: 4.0 mg/kg/injection, schedule: Q01DX001 (oral), vehicle: saline) was 100 % of control, the T/C (endpoint: mean survival time, dose: 4.0 mg/kg/injection, schedule: Q08DX002 (ip), vehicle: saline) was 108 % of control and the T/C (endpoint: mean survival time, dose: 5.0 mg/kg/injection, schedule: Q01DX001 (ip), vehicle: saline) was 94 % of control and 118 % of control. The T/C (endpoint: mean survival time, dose: 8.0 mg/kg/injection, schedule: Q01DX001 (oral), vehicle: saline) was 92 % of control, the T/C (endpoint: mean survival time, dose: 31.2 micrograms/kg/injection, schedule: Q03HX024 (ip), vehicle: saline) was 97 % of control and the T/C (endpoint: mean survival time, dose: 62.5 micrograms/kg/injection, schedule: Q01DX005 (iv), vehicle: saline) was 100 % of control. For the same molecule, the T/C (endpoint: mean survival time, dose: 62.5 micrograms/kg/injection, schedule: Q01DX009 (ip), vehicle: saline) was 101 % of control, the T/C (endpoint: mean survival time, dose: 62.5 micrograms/kg/injection, schedule: Q03HX016 (ip), vehicle: saline) was 102 % of control and the T/C (endpoint: mean survival time, dose: 62.5 micrograms/kg/injection, schedule: Q03HX024 (ip), vehicle: saline) was 104 % of control. The T/C (endpoint: mean survival time, dose: 125.0 micrograms/kg/injection, schedule: Q01DX005 (iv), vehicle: saline) was 98 % of control, the T/C (endpoint: mean survival time, dose: 125.0 micrograms/kg/injection, schedule: Q01DX009 (ip), vehicle: saline) was 115 % of control and the T/C (endpoint: mean survival time, dose: 125.0 micrograms/kg/injection, schedule: Q03HX008 (ip), vehicle: saline) was 123 % of control. For the same molecule, the T/C (endpoint: mean survival time, dose: 125.0 micrograms/kg/injection, schedule: Q03HX016 (ip), vehicle: saline) was 107 % of control, the T/C (endpoint: mean survival time, dose: 125.0 micrograms/kg/injection, schedule: Q03HX024 (ip), vehicle: saline) was 109 % of control and the T/C (endpoint: mean survival time, dose: 250.0 micrograms/kg/injection, schedule: Q01DX005 (iv), vehicle: saline) was 98 % of control. For the same molecule, the T/C (endpoint: mean survival time, dose: 250.0 micrograms/kg/injection, schedule: Q03HX016 (ip), vehicle: saline) was 121 % of control, the T/C (endpoint: mean survival time, dose: 250.0 micrograms/kg/injection, schedule: Q03HX024 (ip), vehicle: saline) was 96 % of control and the T/C (endpoint: mean survival time, dose: 500.0 micrograms/kg/injection, schedule: Q01DX005 (iv), vehicle: saline) was 100 % of control. For the same molecule, the T/C (endpoint: mean survival time, dose: 1000.0 micrograms/kg/injection, schedule: Q01DX005 (iv), vehicle: saline) was 107 % of control, the T/C (endpoint: mean survival time, dose: 1000.0 micrograms/kg/injection, schedule: Q01DX009 (ip), vehicle: saline) was 87 % of control and the T/C (endpoint: median survival time, dose: 0.02 mg/kg/injection, schedule: Q01DX009 (ip), vehicle: saline) was 93 % of control and 100 % of control. The T/C (endpoint: median survival time, dose: 0.04 mg/kg/injection, schedule: Q01DX009 (ip), vehicle: saline) was 100 % of control, the T/C (endpoint: median survival time, dose: 0.08 mg/kg/injection, schedule: Q01DX009 (ip), vehicle: saline) was 106 % of control and 111 % of control and the T/C (endpoint: median survival time, dose: 0.16 mg/kg/injection, schedule: Q01DX009 (ip), vehicle: saline) was 112 % of control.

In the case of CCCC(C(=O)O)N(C)Cc1ccccc1 (stereo not given), the T/C [1] is reported as 92 % of control, the T/C [2] is reported as 101 % of control and the T/C [3] is reported as 97 % of control.

With COC(=O)C1(C(=O)OC)C2CC(C)=C(C)CC21 (stereo not given) the T/C (endpoint: mean survival time, dose: 25.0 mg/kg/injection, schedule: Q01DX009 (ip), vehicle: saline) was 109 % of control, the T/C (endpoint: mean survival time, dose: 50.0 mg/kg/injection, schedule: Q01DX009 (ip), vehicle: saline) was 93 % of control and the T/C [1] was 90 % of control. The T/C (endpoint: mean survival time, dose: 100.0 mg/kg/injection, schedule: Q01DX009 (ip), vehicle: saline) was 104 % of control, the T/C [2] was 94 % of control and the T/C [3] was 87 % of control.

Source: PubChem BioAssay AID248 (DTP/NCI, 2004)
